Tested on: MV-4-11 cells
Experiment: Gene expression microarray analysis (Affymetrix PrimeView) and GSEA
Assay type: cell-based, human
Parameters: RFU PODN (11730768_x_at) / Fold change /veh PODN (11730768_x_at) / RFU LINC00158 (11744669_a_at) / Fold change /veh LINC00158 (11744669_a_at) / RFU DUSP10 (11751237_a_at) / Fold change /veh DUSP10 (11751237_a_at) / RFU ID3 (11757404_x_at) / Fold change /veh ID3 (11757404_x_at) / RFU PLEKHG5 (11737974_s_at) / Fold change /veh PLEKHG5 (11737974_s_at) / RFU LRRC4B (11730491_at) / Fold change /veh LRRC4B (11730491_at) / RFU GIMAP4 (11747438_a_at) / Fold change /veh GIMAP4 (11747438_a_at) / RFU KRT8 (11758183_x_at) / Fold change /veh KRT8 (11758183_x_at) / RFU CNN1 (11734310_a_at) / Fold change /veh CNN1 (11734310_a_at) / RFU VPS37D (11726825_at) / Fold change /veh VPS37D (11726825_at) / RFU C10orf10 (11716522_x_at) / Fold change /veh C10orf10 (11716522_x_at) / RFU KIR2DL2 /// KIR2DL4 /// KIR2DL5A /// KIR2DL5B /// KIR2DS1 /// KIR2DS2 /// KIR2DS3 /// KIR2DS4 /// KIR3DL3 /// KIR3DL3 /// KIR3DS1 (11738374_at) / Fold change /veh KIR2DL2 /// KIR2DL4 /// KIR2DL5A /// KIR2DL5B /// KIR2DS1 /// KIR2DS2 /// KIR2DS3 /// KIR2DS4 /// KIR3DL3 /// KIR3DL3 /// KIR3DS1 (11738374_at) / RFU C1QL1 (11718748_at) / Fold change /veh C1QL1 (11718748_at) / RFU TMPRSS4 (11747572_a_at) / Fold change /veh TMPRSS4 (11747572_a_at) / RFU HAMP (11756126_x_at) / Fold change /veh HAMP (11756126_x_at) / RFU RNFT2 (11725882_a_at) / Fold change /veh RNFT2 (11725882_a_at) / RFU NR4A2 (11747474_a_at) / Fold change /veh NR4A2 (11747474_a_at) / RFU ABCC12 (11746883_a_at) / Fold change /veh ABCC12 (11746883_a_at) / RFU TMEM136 (11760407_x_at) / Fold change /veh TMEM136 (11760407_x_at) / RFU CLDN22 /// WWC2 (11732394_at) / Fold change /veh CLDN22 /// WWC2 (11732394_at) / RFU HLA-DPB1 (11760878_x_at) / Fold change /veh HLA-DPB1 (11760878_x_at) / RFU SPINT1 (11716480_a_at) / Fold change /veh SPINT1 (11716480_a_at) / RFU GAP43 (11754022_s_at) / Fold change /veh GAP43 (11754022_s_at) / RFU A4GNT (11735810_at) / Fold change /veh A4GNT (11735810_at) / RFU PRB3 (11715151_x_at) / Fold change /veh PRB3 (11715151_x_at) / RFU TUBB4B (11761932_at) / Fold change /veh TUBB4B (11761932_at) / RFU CAPN14 (11732068_a_at) / Fold change /veh CAPN14 (11732068_a_at) / RFU TMCC2 (11721928_a_at) / Fold change /veh TMCC2 (11721928_a_at) / RFU IRGQ (11745062_a_at) / Fold change /veh IRGQ (11745062_a_at) / RFU FAM174B (11720279_a_at) / Fold change /veh FAM174B (11720279_a_at) / RFU TMPRSS4 (11748680_a_at) / Fold change /veh TMPRSS4 (11748680_a_at) / RFU FAM212B (11763350_a_at) / Fold change /veh FAM212B (11763350_a_at) / RFU PLEKHG5 (11743358_a_at) / Fold change /veh PLEKHG5 (11743358_a_at) / RFU ZSCAN30 (11745921_a_at) / Fold change /veh ZSCAN30 (11745921_a_at) / RFU CMKLR1 (11741424_a_at) / Fold change /veh CMKLR1 (11741424_a_at) / RFU LOC101060620 /// MAPK8IP1 (11723275_at) / Fold change /veh LOC101060620 /// MAPK8IP1 (11723275_at) / RFU SPTSSB (11747773_x_at) / Fold change /veh SPTSSB (11747773_x_at) / RFU PRSS12 (11739890_at) / Fold change /veh PRSS12 (11739890_at) / RFU BIN1 (11741810_x_at) / Fold change /veh BIN1 (11741810_x_at) / RFU WNT11 (11732464_a_at) / Fold change /veh WNT11 (11732464_a_at) / RFU C10orf10 (11716521_a_at) / Fold change /veh C10orf10 (11716521_a_at) / RFU C5orf56 (11738089_at) / Fold change /veh C5orf56 (11738089_at) / RFU CYB561 (11721691_x_at) / Fold change /veh CYB561 (11721691_x_at) / RFU ANKRD19P (11752326_a_at) / Fold change /veh ANKRD19P (11752326_a_at) / RFU OR2T12 /// OR2T33 /// OR2T8 (11738714_s_at) / Fold change /veh OR2T12 /// OR2T33 /// OR2T8 (11738714_s_at) / RFU VCAN (11748164_a_at) / Fold change /veh VCAN (11748164_a_at) / RFU JSRP1 (11732532_at) / Fold change /veh JSRP1 (11732532_at) / RFU KRTAP10-11 (11738290_x_at) / Fold change /veh KRTAP10-11 (11738290_x_at) / RFU MYO3A (11730013_a_at) / Fold change /veh MYO3A (11730013_a_at) / RFU EBF3 (11725865_a_at) / Fold change /veh EBF3 (11725865_a_at) / RFU CAMK2N1 (11719241_x_at) / Fold change /veh CAMK2N1 (11719241_x_at) / RFU C5orf56 (11738088_a_at) / Fold change /veh C5orf56 (11738088_a_at) / RFU OLFML3 (11715873_a_at) / Fold change /veh OLFML3 (11715873_a_at) / RFU LOC100653217 /// NTM (11731650_a_at) / Fold change /veh LOC100653217 /// NTM (11731650_a_at) / RFU MAPK11 (11762145_a_at) / Fold change /veh MAPK11 (11762145_a_at) / RFU FIZ1 (11724087_x_at) / Fold change /veh FIZ1 (11724087_x_at) / RFU OASL (11726364_x_at) / Fold change /veh OASL (11726364_x_at) / RFU SOX15 (11748057_x_at) / Fold change /veh SOX15 (11748057_x_at) / RFU CD79A (11719716_a_at) / Fold change /veh CD79A (11719716_a_at) / RFU HIST1H1D (11736915_at) / Fold change /veh HIST1H1D (11736915_at) / RFU CASKIN2 (11723855_a_at) / Fold change /veh CASKIN2 (11723855_a_at) / RFU LOC730098 (11760151_x_at) / Fold change /veh LOC730098 (11760151_x_at) / RFU OR4N2 (11742367_at) / Fold change /veh OR4N2 (11742367_at) / RFU PRRT2 (11749266_a_at) / Fold change /veh PRRT2 (11749266_a_at) / RFU SNX32 (11753110_a_at) / Fold change /veh SNX32 (11753110_a_at) / RFU CDHR5 (11726645_a_at) / Fold change /veh CDHR5 (11726645_a_at) / RFU RCAN1 (11760418_a_at) / Fold change /veh RCAN1 (11760418_a_at) / RFU FAM167A (11723789_a_at) / Fold change /veh FAM167A (11723789_a_at) / RFU FAM26E (11764081_at) / Fold change /veh FAM26E (11764081_at) / RFU ISYNA1 (11749810_s_at) / Fold change /veh ISYNA1 (11749810_s_at) / RFU ACY1 (11761880_at) / Fold change /veh ACY1 (11761880_at) / RFU 11764098_at / Fold change /veh 11764098_at / RFU SAMD14 (11745864_x_at) / Fold change /veh SAMD14 (11745864_x_at) / RFU NPB (11741838_a_at) / Fold change /veh NPB (11741838_a_at) / RFU TMPRSS6 (11731388_a_at) / Fold change /veh TMPRSS6 (11731388_a_at) / RFU KRTAP10-2 (11738614_at) / Fold change /veh KRTAP10-2 (11738614_at) / RFU ARHGAP8 /// PRR5-ARHGAP8 (11727945_x_at) / Fold change /veh ARHGAP8 /// PRR5-ARHGAP8 (11727945_x_at) / RFU KRTAP5-7 /// NADSYN1 (11734609_at) / Fold change /veh KRTAP5-7 /// NADSYN1 (11734609_at) / RFU RASL12 (11751679_a_at) / Fold change /veh RASL12 (11751679_a_at) / RFU CDKN2B (11736163_a_at) / Fold change /veh CDKN2B (11736163_a_at) / RFU PRF1 (11729649_at) / Fold change /veh PRF1 (11729649_at) / RFU, ZNF638 /// ZNF638-IT1 / Fold change vs veh, ZNF638 /// ZNF638-IT1 / RFU, PANK3 / Fold change vs veh, PANK3 / RFU, SH3YL1 / Fold change vs veh, SH3YL1 / RFU, ZEB2 / Fold change vs veh, ZEB2 / RFU, NRIP1 / Fold change vs veh, NRIP1 / RFU, PTTG1IP / Fold change vs veh, PTTG1IP / RFU, CAPN2 / Fold change vs veh, CAPN2 / RFU, MED14 / Fold change vs veh, MED14 / RFU, SNORA58 / Fold change vs veh, SNORA58 / RFU, C1orf63 / Fold change vs veh, C1orf63 / RFU, LRRFIP1 / Fold change vs veh, LRRFIP1 / RFU, NDUFAF7 / Fold change vs veh, NDUFAF7 / RFU, SLC12A2 / Fold change vs veh, SLC12A2 / RFU, IBTK / Fold change vs veh, IBTK / RFU, ESF1 / Fold change vs veh, ESF1 / Fold change vs veh, TMEM50B / RFU, TAOK1 / Fold change vs veh, TAOK1 / RFU, ACBD3 / Fold change vs veh, ACBD3 / RFU, TMA16 / Fold change vs veh, TMA16 / RFU, RWDD3 / Fold change vs veh, RWDD3 / RFU, BCAT1 / Fold change vs veh, BCAT1 / RFU, EDEM3 / Fold change vs veh, EDEM3 / RFU, TMEM33 / Fold change vs veh, TMEM33 / RFU, WDR75 / Fold change vs veh, WDR75 / RFU, AHCTF1 / Fold change vs veh, AHCTF1 / RFU, TFRC / Fold change vs veh, TFRC / RFU, ZDHHC17 / Fold change vs veh, ZDHHC17 / RFU, NOM1 / Fold change vs veh, NOM1 / RFU, ARL8B / Fold change vs veh, ARL8B / RFU, ZBTB11 / Fold change vs veh, ZBTB11 / RFU, TAMM41 / Fold change vs veh, TAMM41 / RFU, KIAA1704 /// LOC100996395 / Fold change vs veh, KIAA1704 /// LOC100996395 / RFU, ING1 / Fold change vs veh, ING1 / RFU, TRMT61B / Fold change vs veh, TRMT61B / RFU, FUBP3 / Fold change vs veh, FUBP3 / RFU, TP53 / Fold change vs veh, TP53 / RFU, TNKS2 / Fold change vs veh, TNKS2 / RFU, ZFP14 / Fold change vs veh, ZFP14 / RFU, ACTR2 / Fold change vs veh, ACTR2 / RFU, PPP3R1 / Fold change vs veh, PPP3R1 / RFU, PIK3R1 / Fold change vs veh, PIK3R1 / RFU, HNRNPA1 / Fold change vs veh, HNRNPA1 / RFU, RNF170 / Fold change vs veh, RNF170 / RFU, ZNF28 / Fold change vs veh, ZNF28 / RFU, RNGTT / Fold change vs veh, RNGTT / RFU, OGT / Fold change vs veh, OGT / RFU, BRD1 / Fold change vs veh, BRD1 / RFU, MARS / Fold change vs veh, MARS / RFU, ZNF655 / Fold change vs veh, ZNF655 / RFU, FAHD1 / Fold change vs veh, FAHD1 / RFU, BDP1 / Fold change vs veh, BDP1 / RFU, LRRCC1 / Fold change vs veh, LRRCC1 / RFU, ARID1A / Fold change vs veh, ARID1A / RFU, ZNF146 / Fold change vs veh, ZNF146 / RFU, ZNF330 / Fold change vs veh, ZNF330 / RFU, GPN3 / Fold change vs veh, GPN3 / RFU, C9orf123 / Fold change vs veh, C9orf123 / RFU, N4BP2L2 / Fold change vs veh, N4BP2L2 / RFU, ARFIP1 / Fold change vs veh, ARFIP1 / RFU, FAM179B / Fold change vs veh, FAM179B / RFU, BCL10 / Fold change vs veh, BCL10 / RFU, UHRF1BP1L / Fold change vs veh, UHRF1BP1L / RFU, BET1 / Fold change vs veh, BET1 / RFU, CNOT2 / Fold change vs veh, CNOT2 / RFU, ZNF268 / Fold change vs veh, ZNF268 / Fold change vs veh, ZNF507 / RFU, DGCR2 / Fold change vs veh, DGCR2 / RFU, WDSUB1 / Fold change vs veh, WDSUB1 / Fold change vs veh, HSP90B1 /// MIR3652 / RFU, ADSS / Fold change vs veh, ADSS / RFU, GK / Fold change vs veh, GK / RFU, ZNF148 / Fold change vs veh, ZNF148 / RFU, TAF9 / Fold change vs veh, TAF9 / RFU, SLC1A5 / Fold change vs veh, SLC1A5 / RFU, SLMO2 / Fold change vs veh, SLMO2 / RFU, ABCC4 / Fold change vs veh, ABCC4 / RFU, LOC101060439 /// RAP1B / Fold change vs veh, LOC101060439 /// RAP1B / RFU, RFX7 / Fold change vs veh, RFX7 / RFU, GTPBP10 / Fold change vs veh, GTPBP10 / RFU, CNEP1R1 / Fold change vs veh, CNEP1R1 / RFU, BIVM-ERCC5 /// ERCC5 / Fold change vs veh, BIVM-ERCC5 /// ERCC5 / RFU, ILF3 / Fold change vs veh, ILF3 / RFU 11762660_at / Fold change /veh 11762660_at / RFU VCAN (11757783_s_at) / Fold change /veh VCAN (11757783_s_at) / RFU DDX43 (11728927_at) / Fold change /veh DDX43 (11728927_at) / RFU KRT8 (11758188_x_at) / Fold change /veh KRT8 (11758188_x_at) / RFU NKD1 (11759106_at) / Fold change /veh NKD1 (11759106_at) / RFU SRD5A1 (11742802_a_at) / Fold change /veh SRD5A1 (11742802_a_at) / RFU TPSAB1 /// TPSB2 (11721975_s_at) / Fold change /veh TPSAB1 /// TPSB2 (11721975_s_at) / RFU GSTM3 (11746129_a_at) / Fold change /veh GSTM3 (11746129_a_at) / RFU IL23R (11737362_x_at) / Fold change /veh IL23R (11737362_x_at) / RFU TMEM51 (11727254_a_at) / Fold change /veh TMEM51 (11727254_a_at) / RFU PIWIL2 (11732686_x_at) / Fold change /veh PIWIL2 (11732686_x_at) / RFU ORM1 (11744905_x_at) / Fold change /veh ORM1 (11744905_x_at) / RFU CCDC152 (11743942_at) / Fold change /veh CCDC152 (11743942_at) / RFU ECM1 (11717891_a_at) / Fold change /veh ECM1 (11717891_a_at) / RFU IL23R (11748794_a_at) / Fold change /veh IL23R (11748794_a_at) / RFU TNFAIP8L3 (11732012_x_at) / Fold change /veh TNFAIP8L3 (11732012_x_at) / RFU MBOAT4 (11741988_at) / Fold change /veh MBOAT4 (11741988_at) / RFU 11764193_at / Fold change /veh 11764193_at / RFU TMEM53 (11763286_at) / Fold change /veh TMEM53 (11763286_at) / RFU MAGEB2 (11727129_at) / Fold change /veh MAGEB2 (11727129_at) / RFU TMEM200A (11744735_a_at) / Fold change /veh TMEM200A (11744735_a_at) / RFU CCDC152 (11751479_a_at) / Fold change /veh CCDC152 (11751479_a_at) / RFU FAM211A (11726209_a_at) / Fold change /veh FAM211A (11726209_a_at) / RFU RGS16 (11746705_a_at) / Fold change /veh RGS16 (11746705_a_at) / RFU VCAN (11755009_s_at) / Fold change /veh VCAN (11755009_s_at) / RFU RHOB (11743442_s_at) / Fold change /veh RHOB (11743442_s_at) / RFU RGS16 (11720943_a_at) / Fold change /veh RGS16 (11720943_a_at) / RFU RGS16 (11720944_at) / Fold change /veh RGS16 (11720944_at) / RFU, VPS4B / Fold change vs veh, VPS4B / RFU, CREB1 / Fold change vs veh, CREB1 / RFU, DNAJC13 / Fold change vs veh, DNAJC13 / RFU, GNAQ / Fold change vs veh, GNAQ / RFU, CDK5R1 / Fold change vs veh, CDK5R1 / RFU, ZRANB3 / Fold change vs veh, ZRANB3 / RFU, CUL4A / Fold change vs veh, CUL4A / RFU, CCNY / Fold change vs veh, CCNY / RFU, UFL1 / Fold change vs veh, UFL1 / RFU, COG3 / Fold change vs veh, COG3 / RFU, DIAPH2 / Fold change vs veh, DIAPH2 / RFU, SKA2 / Fold change vs veh, SKA2 / RFU, AFF3 / Fold change vs veh, AFF3 / RFU, LMF1 / Fold change vs veh, LMF1 / RFU, IPO11 / Fold change vs veh, IPO11 / RFU, DFFB / Fold change vs veh, DFFB / RFU, FOXP1 / Fold change vs veh, FOXP1 / RFU, CARD8 / Fold change vs veh, CARD8 / RFU, STRN3 / Fold change vs veh, STRN3 / RFU, ADK / Fold change vs veh, ADK / RFU, RASSF2 / Fold change vs veh, RASSF2 / RFU, WIPF1 / Fold change vs veh, WIPF1 / RFU, LARP1B / Fold change vs veh, LARP1B / RFU, RASA1 / Fold change vs veh, RASA1 / RFU, RB1 / Fold change vs veh, RB1 / RFU, PPFIA1 / Fold change vs veh, PPFIA1 / RFU, MAT2A / Fold change vs veh, MAT2A / RFU, CCT5 / Fold change vs veh, CCT5 / RFU, WDR92 / Fold change vs veh, WDR92 / RFU, CUX1 / Fold change vs veh, CUX1 / RFU, TTC7A / Fold change vs veh, TTC7A / RFU, TMEM135 / Fold change vs veh, TMEM135 / RFU, DEPTOR / Fold change vs veh, DEPTOR / RFU, CPM / Fold change vs veh, CPM / RFU, DNAJB6 / Fold change vs veh, DNAJB6 / RFU, CACNA2D3 / Fold change vs veh, CACNA2D3 / RFU, DTX4 / Fold change vs veh, DTX4 / RFU, TFCP2 / Fold change vs veh, TFCP2 / RFU, GMCL1 /// GMCL1P1 / Fold change vs veh, GMCL1 /// GMCL1P1 / RFU, AEBP2 / Fold change vs veh, AEBP2 / RFU, SNHG1 /// SNORD22 /// SNORD25 /// SNORD26 /// SNORD27 /// SNORD28 /// SNORD29 /// SNORD31 / Fold change vs veh, SNHG1 /// SNORD22 /// SNORD25 /// SNORD26 /// SNORD27 /// SNORD28 /// SNORD29 /// SNORD31 / Fold change (Aza/veh), C12orf56 (ProbeSet 11735607_a_at) / Fold change (ACY-1035/veh), C12orf56 (ProbeSet 11735607_a_at) / Fold change (Aza/veh), FGFR1OP (ProbeSet 11751329_s_at) / Fold change (ACY-1035/veh), FGFR1OP (ProbeSet 11751329_s_at) / Fold change (Aza/veh), VPS36 (ProbeSet 11739960_a_at) / Fold change (ACY-1035/veh), VPS36 (ProbeSet 11739960_a_at) / RFU SYPL1 (11715823_x_at) / Fold change /veh SYPL1 (11715823_x_at) / RFU IGFBP7 (11715501_s_at) / Fold change /veh IGFBP7 (11715501_s_at) / RFU REEP3 (11722064_at) / Fold change /veh REEP3 (11722064_at) / RFU IGLL1 (11728026_x_at) / Fold change /veh IGLL1 (11728026_x_at): dose or concentration left out as unconfirmed
Conditions: ProbeSet 11725885_a_at; LIST B

Nc1ncn([C@@H]2O[C@H](CO)[C@@H](O)[C@H]2O)c(=O)n1 [azacitidine]
Fold change vs veh, CNEP1R1: 0.86
